Our source for the Ki values is BindingDB's records for doi:10.1021/acs.jmedchem.7b00141 (National Institute of Diabetes and Digestive and Kidney …, 2017).

Test [1] concerns the target Sodium-dependent noradrenaline transporter (Homo sapiens, UniProt P23975). The experiment in a line: ChEBML_1661745. As to the method: Inhibition of [3H]mazindol binding to recombinant human NET expressed in HEK293 cell membranes preincubated for 10 mins followed by radioligand addition measured after 90 mins by micro beta scintillation counting analysis
Test [2] has as its target T1, Sodium-dependent serotonin transporter (Homo sapiens, UniProt P31645). The test can be described thus: Inhibition of [3H]mazindol binding to recombinant human SERT expressed in HEK293 cell membranes preincubated for 10 mins followed by radioligand addition measured after 90 mins by micro beta scintillation counting analysis.
Test [3] has as its target T1, Sodium-dependent serotonin transporter. The experiment in a line: Inhibition of [125I]RTI-55 binding to recombinant human SERT expressed in HEK293 cell membranes preincubated for 10 mins followed by radioligand addition measured after 90 mins by micro beta scintillation counting analysis.

T1 sequence (P31645 whole entry): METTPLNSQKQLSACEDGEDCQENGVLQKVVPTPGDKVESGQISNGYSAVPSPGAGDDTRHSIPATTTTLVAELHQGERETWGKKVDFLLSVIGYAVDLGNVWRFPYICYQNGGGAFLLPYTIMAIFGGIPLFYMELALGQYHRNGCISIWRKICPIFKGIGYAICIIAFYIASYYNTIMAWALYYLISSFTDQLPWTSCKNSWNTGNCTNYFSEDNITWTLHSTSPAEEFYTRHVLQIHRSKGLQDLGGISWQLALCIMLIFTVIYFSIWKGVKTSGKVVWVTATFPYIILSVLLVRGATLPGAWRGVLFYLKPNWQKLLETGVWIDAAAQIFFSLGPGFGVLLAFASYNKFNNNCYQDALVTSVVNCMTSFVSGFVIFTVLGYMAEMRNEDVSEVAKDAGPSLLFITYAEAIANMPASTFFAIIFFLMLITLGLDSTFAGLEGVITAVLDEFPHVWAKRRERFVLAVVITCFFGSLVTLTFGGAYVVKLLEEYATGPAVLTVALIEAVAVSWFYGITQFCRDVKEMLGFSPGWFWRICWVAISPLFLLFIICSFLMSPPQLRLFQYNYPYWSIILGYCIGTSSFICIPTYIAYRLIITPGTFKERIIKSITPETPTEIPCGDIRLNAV
Chain of Sodium-dependent noradrenaline transporter (P23975 whole entry): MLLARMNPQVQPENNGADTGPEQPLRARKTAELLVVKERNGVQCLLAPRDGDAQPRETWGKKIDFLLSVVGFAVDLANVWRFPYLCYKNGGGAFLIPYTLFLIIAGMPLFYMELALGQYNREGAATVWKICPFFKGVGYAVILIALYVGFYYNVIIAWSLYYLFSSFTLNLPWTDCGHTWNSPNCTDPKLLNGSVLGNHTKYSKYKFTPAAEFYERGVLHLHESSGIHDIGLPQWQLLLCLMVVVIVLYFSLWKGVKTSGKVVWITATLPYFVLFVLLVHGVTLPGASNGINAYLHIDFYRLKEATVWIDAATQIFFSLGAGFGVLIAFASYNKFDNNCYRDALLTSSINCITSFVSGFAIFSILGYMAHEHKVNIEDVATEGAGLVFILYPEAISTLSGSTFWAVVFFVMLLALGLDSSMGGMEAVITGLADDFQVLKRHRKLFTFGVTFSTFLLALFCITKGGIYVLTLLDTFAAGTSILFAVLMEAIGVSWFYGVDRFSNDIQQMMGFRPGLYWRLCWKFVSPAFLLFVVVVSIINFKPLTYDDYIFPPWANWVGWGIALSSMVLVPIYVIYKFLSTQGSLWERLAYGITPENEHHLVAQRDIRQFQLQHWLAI

In the case of `COC(=O)[C@H]1[C@@H](c2ccc([125I])cc2)CC2CC[C@H]1N2C`, the inhibitory constant (Ki) in test [1] worked out at 70 nM; in test [2] it was 1.3 nM.

Turning to `O[C@]1(c2ccc(Cl)cc2)c2ccccc2C2=NCCN21` [Mazanor], the results for the Ki in test [2] and in test [3] were 45 nM and 136 nM, respectively.
